As a reminder, the MIC is the smallest concentration in the dilution series that meets the test's criterion for growth inhibition. Higher therefore signals weaker potency.

Common to all, as to assay type: functional
Test [1] concerns Pseudomonas aeruginosa. In words: Antibacterial activity against Pseudomonas aeruginosa MTCC 424 after 16 hr by cup-plate method. The note with it: MTCC 424, 16 h.
In test [2] the test system is Escherichia coli. As to the kind of experiment: Antibacterial activity against Escherichia coli MTCC 443 after 16 hr by cup-plate method. The note with it: MTCC 443, 16 h.
For test [3], the system named is Staphylococcus epidermidis. In words: Antibacterial activity against Staphylococcus epidermidis MTCC 435 after 16 hr by cup-plate method. The note with it: MTCC 435, 16 h.
In test [4] the test system is Bacillus subtilis. As to the kind of experiment: Antibacterial activity against Bacillus subtilis MTCC 441 after 16 hr by cup-plate method. The note with it: MTCC 441, 16 h.
In test [5] the test system is Staphylococcus aureus. As to the kind of experiment: Antibacterial activity against Staphylococcus aureus MTCC 096 after 16 hr by cup-plate method. The note with it: MTCC 096, 16 h.
In test [6] the test system is Candida albicans. In words: Antifungal activity against Candida albicans MTCC 227 at 100 ug/ml after 28 to 30 hr by cup-plate method. The note with it: for zone of inhibition at 100 µg/mL: read-out: IZ.
The subject of test [7] is Aspergillus flavus. As to the kind of experiment: Antifungal activity against Aspergillus flavus MTCC 277 at 100 ug/ml after 28 to 30 hr by cup-plate method. The following applies: for zone of inhibition at 100 µg/mL: read-out: IZ.
In test [8] the test system is Aspergillus fumigatus. In words: Antifungal activity against Aspergillus fumigatus MTCC 343 at 100 ug/ml after 28 to 30 hr by cup-plate method. The note with it: for zone of inhibition at 100 µg/mL: read-out: IZ.
The subject of test [9] is Aspergillus niger. As to the kind of experiment: Antifungal activity against Aspergillus niger MTCC 282 at 100 ug/ml after 28 to 30 hr by cup-plate method. The note with it: for zone of inhibition at 100 µg/mL: read-out: IZ.
In test [10] the test system is Klebsiella pneumoniae. In words: Antibacterial activity against Klebsiella pneumoniae MTCC 432 at 100 ug/ml after 16 to 18 hr by cup-plate method. The note with it: read-out: IZ.
For test [11], the system named is Salmonella typhi. In words: Antibacterial activity against Salmonella enterica subsp. enterica serovar Typhi MTCC 733 at 100 ug/ml after 16 to 18 hr by cup-plate method. The following applies: read-out: IZ.
Test [12] concerns Pseudomonas aeruginosa. In words: Antibacterial activity against Pseudomonas aeruginosa MTCC 424 at 100 ug/ml after 16 to 18 hr by cup-plate method. The following applies: read-out: IZ.
Test [13] deals with Escherichia coli. As to the kind of experiment: Antibacterial activity against Escherichia coli MTCC 443 at 100 ug/ml after 16 to 18 hr by cup-plate method. The following applies: read-out: IZ.
Test [14] has as its system Staphylococcus epidermidis. In words: Antibacterial activity against Staphylococcus epidermidis MTCC 435 at 100 ug/ml after 16 to 18 hr by cup-plate method. The note with it: read-out: IZ.
For test [15], the system named is Bacillus subtilis. In words: Antibacterial activity against Bacillus subtilis MTCC 441 at 100 ug/ml after 16 to 18 hr by cup-plate method. The following applies: read-out: IZ.
The subject of test [16] is Staphylococcus aureus. In words: Antibacterial activity against Staphylococcus aureus MTCC 096 at 100 ug/ml after 16 to 18 hr by cup-plate method. The note with it: read-out: IZ.
In test [17] the test system is Candida albicans. As to the kind of experiment: Antifungal activity against Candida albicans MTCC 227 after 28 to 30 hr by cup-plate method.
Test [18] has as its system Aspergillus fumigatus. As to the kind of experiment: Antifungal activity against Aspergillus fumigatus MTCC 343 after 28 to 30 hr by cup-plate method.
Test [19] deals with Aspergillus flavus. As to the kind of experiment: Antifungal activity against Aspergillus flavus MTCC 277 after 28 to 30 hr by cup-plate method.
The test system of test [20] is Aspergillus niger. In words: Antifungal activity against Aspergillus niger MTCC 282 after 28 to 30 hr by cup-plate method.
The subject of test [21] is Klebsiella pneumoniae. In words: Antibacterial activity against Klebsiella pneumoniae MTCC 432 after 16 hr by cup-plate method. The note with it: MTCC 432, 16 h.

Structures are written as SMILES. Converted amounts (≈) assume the structure as drawn. The source made the active and inactive calls.

Regarding `c1ccc2c(c1)Sc1cccnc1N2CCCCN1c2ccccc2Sc2cccnc21`, the MIC in test [1] is 6.25 µg/mL (≈ 13.7 µM); in [2] it was more than 50 µg/mL; in test [3], 12.5 µg/mL (≈ 27.5 µM); in test [4] it was more than 50 µg/mL; in test [5], 50 µg/mL (≈ 110 µM); in [17], more than 50 µg/mL. Also, the MIC was more than 50 µg/mL in test [18], more than 50 µg/mL in [19], more than 50 µg/mL in test [20] and 25 µg/mL (≈ 55 µM) in test [21]. For the same compound, the “inhibition zone (IZ)” value in [6], in test [7], in test [8] and in test [9] was “inactive” throughout. Further, the zone of inhibition at 100 µg/mL in test [10] came to 12 mm; in [11], 12 mm; in test [12], 13 mm; in test [13], 11 mm; in test [14], 12 mm; in [15] it was 10 mm. Besides, the zone of inhibition at 100 µg/mL in [16] amounted to 11 mm.

`c1ccc2c(c1)Sc1cccnc1N2CCCCCCN1c2ccccc2Sc2cccnc21`: the MIC in test [1] came to 50 µg/mL (≈ 104 µM); in test [2], 12.5 µg/mL (≈ 25.9 µM); in [3], 6.25 µg/mL (≈ 12.9 µM); in test [4] it was 25 µg/mL (≈ 51.8 µM); in test [5], 6.25 µg/mL (≈ 12.9 µM); in [17] it was 12.5 µg/mL (≈ 25.9 µM). The MIC in test [18] was more than 50 µg/mL; in test [19], 25 µg/mL (≈ 51.8 µM); in test [20] it was 25 µg/mL (≈ 51.8 µM); in [21], 25 µg/mL (≈ 51.8 µM). Moreover, the zone of inhibition at 100 µg/mL was determined as 12 mm in [6]; 12 mm in test [7]; 10 mm in [8]; 11 mm in [9]; 12 mm in [10]; 12 mm in test [11]. The zone of inhibition at 100 µg/mL in [12] amounted to 11 mm; in test [13], 12 mm; in test [14] it was 13 mm; in [15] it was 12 mm; in test [16], 13 mm.

With `CC(=O)Nc1ccc(Br)cc1Sc1ncccc1[N+](=O)[O-]`, the MIC in [1] was 6.25 µg/mL (≈ 17 µM); in test [2], more than 50 µg/mL; in test [3], 6.25 µg/mL (≈ 17 µM); in test [4], 25 µg/mL (≈ 67.9 µM); in [5], 25 µg/mL (≈ 67.9 µM); in test [17], 6.25 µg/mL (≈ 17 µM). Also, the MIC is 6.25 µg/mL (≈ 17 µM) in test [18], 12.5 µg/mL (≈ 33.9 µM) in [19], 6.25 µg/mL (≈ 17 µM) in [20] and 6.25 µg/mL (≈ 17 µM) in test [21]. The zone of inhibition at 100 µg/mL was 13 mm in test [6]; 12 mm in test [7]; 14 mm in test [8]; 16 mm in [9]; 13 mm in [10]; 11 mm in test [11]. Further, the zone of inhibition at 100 µg/mL in test [12] was determined as 14 mm; in test [13] it was 11 mm; in test [14] it was 13 mm; in test [15] it was 12 mm; in test [16], 12 mm.

Turning to `Brc1ccc2c(c1)Sc1cccnc1N2CCCCCCN1c2ccc(Br)cc2Sc2cccnc21`, the MIC in test [1] is 6.25 µg/mL (≈ 9.76 µM); in [2] it was 6.25 µg/mL (≈ 9.76 µM); in test [3] it was 6.25 µg/mL (≈ 9.76 µM); in [4], 12.5 µg/mL (≈ 19.5 µM); in test [5] it was 25 µg/mL (≈ 39 µM); in test [17], 25 µg/mL (≈ 39 µM). Besides, the minimum inhibitory concentration (MIC) is 25 µg/mL (≈ 39 µM) in test [18], 12.5 µg/mL (≈ 19.5 µM) in test [19], more than 50 µg/mL in test [20] and 25 µg/mL (≈ 39 µM) in test [21]. In addition, the zone of inhibition at 100 µg/mL was 11 mm in test [6]; 12 mm in test [7]; 11 mm in test [8]; 11 mm in [9]; 12 mm in [10]; 11 mm in test [11]. In addition, the zone of inhibition at 100 µg/mL in test [12] worked out at 13 mm; in test [13], 12 mm; in [14] it was 14 mm; in test [15], 13 mm; in [16], 12 mm.
